# Data published in patent US20230053540A1, “TREATMENT OF LIVER INJURY” (Massachusetts Institute of Technology, priority 2019, published 2023).
# Test system: hepatocytes
# Experiment: Seq-Well scRNA-Seq of hepatocytes after APAP overdose (signature scores, DEG vs untreated)
# Type: in vivo, mouse
# Conditions: cluster A6 (APAP 6 hr)
compound,measurement,value
"CC(=O)Nc1ccc(O)cc1 [APAP, acetaminophen]",Iigp1 pct.1,0.78
same,Il1b avg_logFC,0.7365
same,Il1b pct.1,0.236
same,Il1r1 avg_logFC,0.845
same,Il1r1 pct.1,0.683
same,Insig2 avg_logFC,0.6834
same,Insig2 pct.1,0.854
same,Iqgap1 avg_logFC,0.4345
same,Iqgap1 pct.1,0.162
same,Itgb2 avg_logFC,0.2628
same,Itgb2 pct.1,0.105
same,Itih2 avg_logFC,0.3109
same,Itih2 pct.1,0.893
same,Jak1 avg_logFC,0.4696
same,Jak1 pct.1,0.554
same,Jmjd1c avg_logFC,0.5262
same,Jmjd1c pct.1,0.47
same,Klf6 avg_logFC,0.6123
same,Klf6 pct.1,0.382
same,Krt8 avg_logFC,1.204
same,Krt8 pct.1,0.826
same,Krt18 avg_logFC,1.118
same,Krt18 pct.1,0.864
same,Laptm5 avg_logFC,0.3169
same,Laptm5 pct.1,0.124
same,Lars2 avg_logFC,0.5887
same,Lars2 pct.1,1
same,Lgmn avg_logFC,0.4368
same,Lgmn pct.1,0.246
same,Lmo4 avg_logFC,0.2923
same,Lmo4 pct.1,0.308
same,Lpin2 avg_logFC,0.5227
same,Lpin2 pct.1,0.745
same,Lrrc58 avg_logFC,0.9243
same,Lrrc58 pct.1,0.711
same,Lyst avg_logFC,0.3767
same,Lyst pct.1,0.31
same,Lyz2 avg_logFC,0.6523
same,Lyz2 pct.1,0.234
same,Maff avg_logFC,0.3314
same,Maff pct.1,0.224
same,Malat1 avg_logFC,1.108
same,Malat1 pct.1,0.871
same,Map2k3 avg_logFC,0.3952
same,Map2k3 pct.1,0.427
same,Mat1a avg_logFC,0.3317
same,Mat1a pct.1,0.986
same,Mat2a avg_logFC,0.4693
same,Mat2a pct.1,0.487
same,Mdn1 avg_logFC,0.2931
same,Mdn1 pct.1,0.251
same,Mfsd2a avg_logFC,0.4232
same,Mfsd2a pct.1,0.465
same,Mmp8 avg_logFC,0.3585
same,Mmp8 pct.1,0.136
same,Mmp14 avg_logFC,0.2594
same,Mmp14 pct.1,0.253
same,Mrap avg_logFC,0.8261
same,Mrap pct.1,0.606
same,Mrc1 avg_logFC,0.3063
same,Mrc1 pct.1,0.131
same,Msn avg_logFC,0.251
same,Msn pct.1,0.105
same,Mt1 avg_logFC,0.9315
same,Mt1 pct.1,0.981
same,Mt2 avg_logFC,0.6647
same,Mt2 pct.1,0.938
same,Mthfd2 avg_logFC,0.26
same,Mthfd2 pct.1,0.205
same,Myh9 avg_logFC,0.8661
same,Myh9 pct.1,0.718
same,Myl12a avg_logFC,0.3937
same,Myl12a pct.1,0.461
same,Myo1e avg_logFC,0.4916
same,Myo1e pct.1,0.475
same,Ncl avg_logFC,0.4292
same,Ncl pct.1,0.69
same,Neat1 avg_logFC,0.6234
same,Neat1 pct.1,0.31
same,Nid1 avg_logFC,0.3315
same,Nid1 pct.1,0.229
same,Nolc1 avg_logFC,0.4084
same,Nolc1 pct.1,0.363
same,Nop56 avg_logFC,0.2507
same,Nop56 pct.1,0.282
same,Nop58 avg_logFC,0.5859
same,Nop58 pct.1,0.492
same,Phc2 avg_logFC,0.3092
same,Phc2 pct.1,0.284
same,Picalm avg_logFC,0.6425
same,Picalm pct.1,0.647
same,Pigr avg_logFC,0.2627
same,Pigr pct.1,0.947
same,Pla2g7 avg_logFC,0.2737
same,Pla2g7 pct.1,0.119
same,Plek avg_logFC,0.3031
same,Plek pct.1,0.11
same,Plin2 avg_logFC,1.276
same,Plin2 pct.1,0.943
same,Plscr1 avg_logFC,0.4343
same,Plscr1 pct.1,0.329
same,Ppan avg_logFC,0.2655
same,Ppan pct.1,0.255
same,Ppl avg_logFC,0.8287
same,Ppl pct.1,0.47
same,Psat1 avg_logFC,0.3001
same,Psat1 pct.1,0.229
same,Ptprc avg_logFC,0.4072
same,Ptprc pct.1,0.153
same,Rad54l2 avg_logFC,0.3366
same,Rad54l2 pct.1,0.325
same,Ranbp2 avg_logFC,0.4808
same,Ranbp2 pct.1,0.566
same,Rcan1 avg_logFC,0.5727
same,Rcan1 pct.1,0.425
same,Rell1 avg_logFC,0.577
same,Rell1 pct.1,0.375
same,Retnlg avg_logFC,0.3746
same,Retnlg pct.1,0.129
same,Retsat avg_logFC,0.4801
same,Retsat pct.1,0.845
same,Rgs2 avg_logFC,0.3802
same,Rgs2 pct.1,0.138
same,Rnf144a avg_logFC,0.3119
same,Rnf144a pct.1,0.177
same,Rock2 avg_logFC,0.5525
same,Rock2 pct.1,0.425
same,Rora avg_logFC,0.5514
same,Rora pct.1,0.549
same,S100a8 avg_logFC,1.116
same,S100a8 pct.1,0.353
same,S100a9 avg_logFC,1.336
same,S100a9 pct.1,0.399
same,Sat1 avg_logFC,0.6622
same,Sat1 pct.1,0.47
same,Sdad1 avg_logFC,0.2844
same,Sdad1 pct.1,0.289
same,Sdc3 avg_logFC,0.318
same,Sdc3 pct.1,0.103
same,Sdc4 avg_logFC,0.4415
same,Sdc4 pct.1,0.909
same,Serpina3m avg_logFC,0.6067
same,Serpina3m pct.1,0.85
same,Slc16a6 avg_logFC,0.864
same,Slc16a6 pct.1,0.47
same,Slc39a14 avg_logFC,0.6721
same,Slc39a14 pct.1,0.678
same,Son avg_logFC,0.4342
same,Son pct.1,0.601
same,Spred1 avg_logFC,0.3351
same,Spred1 pct.1,0.308
same,Sqstm1 avg_logFC,0.6817
same,Sqstm1 pct.1,0.859
same,Srgn avg_logFC,0.926
same,Srgn pct.1,0.284
same,Srxn1 avg_logFC,1.874
same,Srxn1 pct.1,0.821
same,St3gal1 avg_logFC,0.4344
same,St3gal1 pct.1,0.473
same,Stat3 avg_logFC,0.4846
same,Stat3 pct.1,0.604
same,Stk17b avg_logFC,0.2825
same,Stk17b pct.1,0.126
same,Stk40 avg_logFC,0.4875
same,Stk40 pct.1,0.382
same,Tars avg_logFC,0.4768
same,Tars pct.1,0.666
same,Tatdn2 avg_logFC,0.309
same,Tatdn2 pct.1,0.334
same,Tbc1d15 avg_logFC,0.42
same,Tbc1d15 pct.1,0.461
same,Tcerg1 avg_logFC,0.3358
same,Tcerg1 pct.1,0.305
same,Tiparp avg_logFC,0.427
same,Tiparp pct.1,0.346
same,Tjp2 avg_logFC,0.403
same,Tjp2 pct.1,0.332
same,Tmem87b avg_logFC,0.3486
same,Tmem87b pct.1,0.351
same,Tmsb4x avg_logFC,0.7051
same,Tmsb4x pct.1,0.332
same,Tnfrsf1a avg_logFC,0.4533
same,Tnfrsf1a pct.1,0.508
same,Tnfrsf12a avg_logFC,1.081
same,Tnfrsf12a pct.1,0.623
same,Tra2a avg_logFC,0.6917
same,Tra2a pct.1,0.337
same,Trp53inp1 avg_logFC,0.8389
same,Trp53inp1 pct.1,0.637
same,Tsc22d2 avg_logFC,0.3382
same,Tsc22d2 pct.1,0.353
same,Tsku avg_logFC,0.3206
same,Tsku pct.1,0.327
same,Tsr1 avg_logFC,0.314
same,Tsr1 pct.1,0.341
same,Tubb2a avg_logFC,0.7838
same,Tubb2a pct.1,0.618
same,Tubb6 avg_logFC,0.533
same,Tubb6 pct.1,0.368
same,Txnrd1 pct.1,0.838
same,Tyrobp avg_logFC,0.4431
same,Tyrobp pct.1,0.189
